Data from the supplement of paper PMC10307832.

Tests used:
Assay in all cases: relative viability (nuclei count vs DMSO), 5 days (fraction); higher = more cells survive
HCC-44 = tested on: HCC-44
In short: (§1)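 Five library-drug doses in √10 steps were combined with a fixed anchor-drug dose, or a single drug was given alone, by pin tool to lung cancer cell lines in 1536-well plates the day after seeding. Nuclei were stained and counted after 5 days. Relative viability is the nuclei count in treated wells over that in vehicle wells, taken as the median of duplicate plates.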

NCI-H358 = tested on: NCI-H358
In short: as §1

NCI-H1975 = tested on: NCI-H1975
In short: as §1

NCI-H1437 = tested on: NCI-H1437
In short: as §1

NCI-H596 = tested on: NCI-H596
In short: as §1

LK-2 = tested on: LK-2
In short: as §1

201T = tested on: 201T
In short: as §1

NCI-H1792 = tested on: NCI-H1792
In short: as §1

SW 900 = tested on: SW 900
In short: as §1

EKVX = tested on: EKVX
In short: as §1

NCI-H838 = tested on: NCI-H838
In short: as §1

BEN = tested on: BEN
In short: as §1

HCC-15 = tested on: HCC-15
In short: as §1

NCI-H441 = tested on: NCI-H441
In short: as §1

A-427 = tested on: A-427
In short: as §1

NCI-H23 = tested on: NCI-H23
In short: as §1

HARA = tested on: HARA
In short: as §1

NCI-H1666 = tested on: NCI-H1666
In short: as §1

SK-MES-1 = tested on: SK-MES-1
In short: as §1

COR-L 105 = tested on: COR-L 105
In short: as §1

HCC-827 = tested on: HCC-827
In short: as §1

NCI-H650 = tested on: NCI-H650
In short: as §1

COR-L23 = tested on: COR-L23
In short: as §1

CC1(C)CCC(c2ccc(Cl)cc2)=C(CN2CCN(c3ccc(C(=O)NS(=O)(=O)c4ccc(N[C@H](CCN5CCOCC5)CSc5ccccc5)c(S(=O)(=O)C(F)(F)F)c4)cc3)CC2)C1 [Navitoclax] + N=C(N)NC(=N)NCCc1ccccc1 [Phenformin] (partner 250 µM)
relative viability (HCC-44; first compound 0.005 µM): 0.173 | relative viability (HCC-44; first compound 0.01581 µM): 0.184 | relative viability (HCC-44; first compound 0.05 µM): 0.185 | relative viability (HCC-44; first compound 0.1581 µM): 0.131 | relative viability (HCC-44; first compound 0.5 µM): 0.197 | relative viability (NCI-H358; first compound 0.005 µM): 0.362 | relative viability (NCI-H358; first compound 0.01581 µM): 0.376 | relative viability (NCI-H358; first compound 0.05 µM): 0.357 | relative viability (NCI-H358; first compound 0.1581 µM): 0.343 | relative viability (NCI-H358; first compound 0.5 µM): 0.424 | relative viability (NCI-H1975; first compound 0.005 µM): 0.427 | relative viability (NCI-H1975; first compound 0.01581 µM): 0.428 | relative viability (NCI-H1975; first compound 0.05 µM): 0.454 | relative viability (NCI-H1975; first compound 0.1581 µM): 0.414 | relative viability (NCI-H1975; first compound 0.5 µM): 0.42 | relative viability (NCI-H1437; first compound 0.005 µM): 0.269 | relative viability (NCI-H1437; first compound 0.01581 µM): 0.333 | relative viability (NCI-H1437; first compound 0.05 µM): 0.334 | relative viability (NCI-H1437; first compound 0.1581 µM): 0.314 | relative viability (NCI-H1437; first compound 0.5 µM): 0.41 | relative viability (NCI-H596; first compound 0.005 µM): 0.742 | relative viability (NCI-H596; first compound 0.01581 µM): 0.71 | relative viability (NCI-H596; first compound 0.1581 µM): 0.67 | relative viability (NCI-H596; first compound 0.5 µM): 0.815 | relative viability (LK-2; first compound 0.005 µM): 0.417 | relative viability (LK-2; first compound 0.01581 µM): 0.551 | relative viability (LK-2; first compound 0.05 µM): 0.379 | relative viability (LK-2; first compound 0.1581 µM): 0.353 | relative viability (LK-2; first compound 0.5 µM): 0.395 | relative viability (201T; first compound 0.005 µM): 0.447 | relative viability (201T; first compound 0.01581 µM): 0.458 | relative viability (201T; first compound 0.05 µM): 0.456 | relative viability (201T; first compound 0.1581 µM): 0.438 | relative viability (201T; first compound 0.5 µM): 0.492 | relative viability (NCI-H1792; first compound 0.005 µM): 0.258 | relative viability (NCI-H1792; first compound 0.01581 µM): 0.179 | relative viability (NCI-H1792; first compound 0.5 µM): 0.112 | relative viability (SW 900; first compound 0.005 µM): 0.484 | relative viability (SW 900; first compound 0.01581 µM): 0.638 | relative viability (SW 900; first compound 0.05 µM): 0.586 | relative viability (SW 900; first compound 0.1581 µM): 0.556 | relative viability (SW 900; first compound 0.5 µM): 0.41 | relative viability (EKVX; first compound 0.005 µM): 0.262 | relative viability (EKVX; first compound 0.01581 µM): 0.238 | relative viability (EKVX; first compound 0.05 µM): 0.226 | relative viability (EKVX; first compound 0.1581 µM): 0.239 | relative viability (EKVX; first compound 0.5 µM): 0.235 | relative viability (NCI-H838; first compound 0.005 µM): 0.529 | relative viability (NCI-H838; first compound 0.01581 µM): 0.735 | relative viability (NCI-H838; first compound 0.05 µM): 0.757 | relative viability (NCI-H838; first compound 0.1581 µM): 0.749 | relative viability (NCI-H838; first compound 0.5 µM): 0.664 | relative viability (BEN; first compound 0.005 µM): 0.246 | relative viability (BEN; first compound 0.01581 µM): 0.265 | relative viability (BEN; first compound 0.05 µM): 0.248 | relative viability (BEN; first compound 0.1581 µM): 0.294 | relative viability (BEN; first compound 0.5 µM): 0.232 | relative viability (HCC-15; first compound 0.005 µM): 0.453 | relative viability (HCC-15; first compound 0.01581 µM): 0.488 | relative viability (HCC-15; first compound 0.05 µM): 0.406 | relative viability (HCC-15; first compound 0.1581 µM): 0.483 | relative viability (HCC-15; first compound 0.5 µM): 0.422 | relative viability (NCI-H441; first compound 0.005 µM): 0.919 | relative viability (NCI-H441; first compound 0.01581 µM): 1.14 | relative viability (NCI-H441; first compound 0.05 µM): 0.846 | relative viability (NCI-H441; first compound 0.1581 µM): 0.851 | relative viability (NCI-H441; first compound 0.5 µM): 0.818 | relative viability (A-427; first compound 0.005 µM): 0.342 | relative viability (A-427; first compound 0.01581 µM): 0.359 | relative viability (A-427; first compound 0.05 µM): 0.179 | relative viability (A-427; first compound 0.1581 µM): 0.287 | relative viability (A-427; first compound 0.5 µM): 0.273 | relative viability (NCI-H23; first compound 0.005 µM): 0.759 | relative viability (NCI-H23; first compound 0.01581 µM): 0.818 | relative viability (NCI-H23; first compound 0.05 µM): 0.662 | relative viability (NCI-H23; first compound 0.1581 µM): 0.783 | relative viability (NCI-H23; first compound 0.5 µM): 0.799 | relative viability (HARA; first compound 0.005 µM): 0.491 | relative viability (HARA; first compound 0.01581 µM): 0.554 | relative viability (HARA; first compound 0.1581 µM): 0.415 | relative viability (HARA; first compound 0.5 µM): 0.477 | relative viability (NCI-H1666; first compound 0.005 µM): 0.604 | relative viability (NCI-H1666; first compound 0.01581 µM): 0.573 | relative viability (NCI-H1666; first compound 0.05 µM): 0.511 | relative viability (NCI-H1666; first compound 0.1581 µM): 0.534 | relative viability (NCI-H1666; first compound 0.5 µM): 0.559 | relative viability (SK-MES-1; first compound 0.005 µM): 0.581 | relative viability (SK-MES-1; first compound 0.01581 µM): 0.746 | relative viability (SK-MES-1; first compound 0.05 µM): 0.684 | relative viability (SK-MES-1; first compound 0.1581 µM): 0.681 | relative viability (SK-MES-1; first compound 0.5 µM): 0.722 | relative viability (COR-L 105; first compound 0.005 µM): 0.464 | relative viability (COR-L 105; first compound 0.01581 µM): 0.746 | relative viability (COR-L 105; first compound 0.05 µM): 0.431 | relative viability (COR-L 105; first compound 0.1581 µM): 0.503 | relative viability (COR-L 105; first compound 0.5 µM): 0.405 | relative viability (HCC-827; first compound 0.005 µM): 0.404 | relative viability (HCC-827; first compound 0.01581 µM): 0.434 | relative viability (HCC-827; first compound 0.05 µM): 0.355 | relative viability (HCC-827; first compound 0.1581 µM): 0.396 | relative viability (HCC-827; first compound 0.5 µM): 0.382 | relative viability (NCI-H650; first compound 0.005 µM): 0.447 | relative viability (NCI-H650; first compound 0.01581 µM): 0.473 | relative viability (NCI-H650; first compound 0.05 µM): 0.456 | relative viability (NCI-H650; first compound 0.1581 µM): 0.456 | relative viability (NCI-H650; first compound 0.5 µM): 0.504 | relative viability (COR-L23; first compound 0.005 µM): 0.409 | relative viability (COR-L23; first compound 0.01581 µM): 0.494 | relative viability (COR-L23; first compound 0.05 µM): 0.516 | relative viability (COR-L23; first compound 0.1581 µM): 0.438 | relative viability (COR-L23; first compound 0.5 µM): 0.447
